Laboratory results published in article PMC11555673, “Modulators of the Hop-HSP90 Protein–Protein Interaction Disrupt KSHV Lytic Replication” (ACS Infectious Diseases, 2024).
Where no end group is shown, it is not given here. [ ]: non-standard residue; d: D form. SulfoLink = iodoacetyl-modified agarose resin; Mpa = O=C(O)CCS

Assays:
KSHV vIRF3 = assay type: cell-based
CDK4 = assay: Western blot of HSP90 client CDK4 in reactivated TREx-BCBL-1-RTA cells; assay type: cell-based; settings: Figures 7C and S4
Method: The remaining TREx-BCBL-1-RTA cells (after cell viability assay) were harvested and washed twice with ice-cold PBS (pH 7.4). […] Bicinchoninic acid (BCA) protein quantification assay was used to determine the concentration of protein in the lysates. An equal amount of protein samples was denatured in Laemmli SDS loading buffer at 95 °C for 5 min. An equal volume of the denatured protein samples was resolved by SDS-PAGE and transferred to nitrocellulose membranes using the complete Bio-Rad Trans-Blot Turbo Transfer System (Bio-Rad, California). […] The membranes were incubated in an appropriate primary antibody. The primary antibodies used in this study were mouse anti-ORF57 (207.6) monoclonal antibody (Santa Cruz Biotechnology, sc-135746), mouse […]) monoclonal antibody (Novus Biologicals, NB200-167SS), rabbit anti-Hop monoclonal antibody (Abcam, ab126724), mouse anti-Hsp90α/β (F-8) monoclonal antibody (Santa Cruz, sc-13119), anti-CDK4 antibody [EPR4513-32-7] (Abcam, Ab108357), rabbit anti-β-actin [EPR2124] monoclonal antibody (Abcam, Ab213262), and HRP-conjugated anti-GAPDH antibody (EPR6256) (Abcam, ab185059). The membranes were washed three times using TBST and incubated in an appropriate secondary antibody. […]

[1] = tested on: KSHV-infected TREx-BCBL-1-RTA cells
HSP90 = assay: Pulldown from HeLa cell lysates with resin-supported peptides, Western blot for HSP90; assay type: binding; settings: full-length Hop IP experiments
Hop = assay: Pulldown from HeLa cell lysates with resin-supported peptides, Western blot for Hop; assay type: binding; settings: incubated overnight with resin-supported peptide, densitometry
HopTPR2A–HSP90CTD PPI = assay: ELISA-based solid-phase HopTPR2A–HSP90CTD PPI inhibitory assay; assay type: biochemical; settings: SAR, Figures 2 and 3; peptide 1 as control

## CPP-MAAVD (disulfide) [CPP-19]
KSHV vIRF3
  vIRF3 expression, dose-dependent analysis: no effect on either
KSHV ORF57
  ORF57 expression, dose-dependent analysis: no effect on either
CDK4
  Levels of HSP90 client CDK4: same effect was not seen
[1]
  Cytotoxicity: negligible cytotoxicity

## IP-5: weakly active peptide 5 immobilized on SulfoLink resin, control (SulfoLink-[Mpa]MEDVE)
HSP90
  HSP90 in elution after pulldown: not observed
Hop
  Hop in elution after pulldown: only trace amounts of Hop

## LWWPD [Peptide 12]
HopTPR2A–HSP90CTD PPI
  HopTPR2A–HSP90CTD PPI disruption activity (in words): weak to moderate activity
